Measured values published in US8362001B2, “Azetidinyl diamides as monoacylglycerol lipase inhibitors” (Janssen Pharmaceutica NV, priority 2009, dated 2013).
Positions count from the first letter of the chain named.

Experiments:
[1] = target: T1, purified wild type MGL (wt-MGLL 6H-11-313) (Homo sapiens, UniProt Q99685); experiment: biochemical
T1 sequence (Q99685 1-303): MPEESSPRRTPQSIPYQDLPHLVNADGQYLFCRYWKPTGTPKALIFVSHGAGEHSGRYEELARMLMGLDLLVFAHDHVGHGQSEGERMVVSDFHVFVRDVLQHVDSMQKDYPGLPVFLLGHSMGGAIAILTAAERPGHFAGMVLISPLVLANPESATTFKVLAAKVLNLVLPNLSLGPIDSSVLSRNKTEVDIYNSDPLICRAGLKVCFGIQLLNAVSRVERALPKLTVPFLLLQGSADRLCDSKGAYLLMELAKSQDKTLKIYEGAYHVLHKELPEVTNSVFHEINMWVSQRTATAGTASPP

mutant MGL = target: T2, mutant MGL (Homo sapiens, UniProt Q99685, L169S/L176S); experiment: MGL ThermoFluor assay - mutant
T2 sequence (Q99685 1-303 L169S/L176S): T1 sequence (Q99685 1-303) with L169S, L176S
Procedure: The ThermoFluor (TF) assay is a 384-well plate-based binding assay that measures thermal stability of proteins^1,2. […] TF dye used in all experiments was 1,8-ANS (Invitrogen: A-47). Final TF assay conditions used for MGL studies were 0.07 mg/ml of mutant MGL, 100 μM ANS, 200 mM NaCl, 0.001% Tween-20 in 50 mM PIPES (pH=7.0).
Screening compound plates contained 100% DMSO compound solutions at a single concentration. […] Columns 12 and 24 were used as DMSO reference and contained no compound. […] Following compound dispension, protein and dye solutions were added to achieve the final assay volume of 3 μL.
Bar-coded assay plates were robotically loaded onto a thermostatically controlled PCR-type thermal block and then heated from 40 to 90° C. degrees at a ramp-rate of 1° C./min for all experiments. Fluorescence was measured by continuous illumination with UV light (Hamamatsu LC6), supplied via fiber optics and filtered through a band-pass filter (380-400 nm; >60D cutoff). Fluorescence emission of the entire 384-well plate was detected by measuring light intensity using a CCD camera (Sensys, Roper Scientific) filtered to detect 500±25 nm, resulting in simultaneous and independent readings of all 384 wells. A single image with 20-sec exposure time was collected at each temperature, and the sum of the pixel intensity in a given area of the assay plate was recorded vs temperature and fit to standard equations to yield the Tm^1. • 1.
For some experiments, quantitative NMR spectroscopy (qNMR) was used to measure concentration of the initial 100% DMSO compound solutions and, using the same fitting method, qKd values were determined

rat = experiment: CFA-induced paw radiant heat hypersensitivity; type: in vivo; conditions: 30 mg/kg p.o., HPβCD, last time point 300 min, group mean values
Procedure: Each rat was placed in a test chamber on a warm glass surface and allowed to acclimate for approximately 10 min. A radiant thermal stimulus (beam of light) was then focused through the glass onto the plantar surface of each hind paw in turn. The thermal stimulus was automatically shut off by a photoelectric relay when the paw was moved or when the cut-off time was reached (20 sec for radiant heat at ˜5 amps). An initial (baseline) response latency to the thermal stimulus was recorded for each animal prior to the injection of complete Freund's adjuvant (CFA). 24 h following intraplantar CFA injection, the response latency of the animal to the thermal stimulus was then re-evaluated and compared to the animal's baseline response time. […] Post-compound treatment withdrawal latencies were assessed at fixed time intervals, typically 30, 60, 120, 180, and 300 min.
The percent reversal (% R) of hypersensitivity was calculated in one of two different ways: 1) using group mean values or 2) using individual animal values. […]
Method 1. For all compounds, the % R of hypersensitivity was calculated using the mean value for groups of animals at each time point according to the following formula: % reversal=[(group treatment response−group CFA response)/(group baseline response−group CFA response)]×100 Results are given for the maximum % reversal observed for each compound at any time point tested. […]

MGL = target: T3, MGL (Rattus norvegicus, UniProt Q8R431); experiment: 2-AG accumulation assay in rat brain homogenate; type: biochemical; conditions: compound 1 μM, percent vehicle = 2-AG accumulation with compound / in vehicle x 100, read-out: Rat Brain 2AG % VehCntrl (%) @1 μM
T3 construct: one g rat brain was homogenized using a Polytron homogenizer; from tissue; host or cells: rat brain homogenate
T3 sequence (Q8R431 1-303): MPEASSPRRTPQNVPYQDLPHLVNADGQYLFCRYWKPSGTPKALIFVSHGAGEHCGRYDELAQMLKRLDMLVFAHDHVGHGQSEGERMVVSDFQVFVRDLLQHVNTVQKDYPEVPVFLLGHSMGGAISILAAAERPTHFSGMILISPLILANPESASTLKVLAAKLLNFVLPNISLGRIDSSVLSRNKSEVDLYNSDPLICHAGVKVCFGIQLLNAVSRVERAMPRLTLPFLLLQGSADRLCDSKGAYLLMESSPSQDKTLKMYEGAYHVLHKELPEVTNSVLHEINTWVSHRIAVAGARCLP

Compound	IC50 [1]	Kd (mutant MGL)	other results
Cc1cn(-c2ccc(F)c(F)c2)c2ccc(C(=O)N3CCN(C4CN(C(=O)c5ccc[nH]5)C4)CC3)cc12 [Cpd 1219, 1-(3,4-Difluorophenyl)-3-methyl-5-({4-[1-(1H-pyrrol-2-ylcarbonyl)azetidin-3-yl]piperazin-1-yl}carbonyl)-1H-indole]	235 nM	25 nM	–
O=C(c1ccc(-c2cccc(C(F)(F)F)c2)c(Cl)c1)N1CC(N2CCN(C(=O)c3cscn3)CC2)C1 [Cpd 1102]	–	–	Method 1: peak % reversal (rat): 38%
O=C(c1ccc[nH]1)N1CC(N2CCN(C(=O)c3cc4cc(C(F)(F)F)ccc4s3)CC2)C1 [Cpd 722, 1-[1-(1H-Pyrrol-2-ylcarbonyl)azetidin-3-yl]-4-{[5-(trifluoromethyl)-1-benzothiophen-2-yl]carbonyl}piperazine]	–	–	activity at 1 µM (MGL): 240%
C/C(=C\c1ccc(Cl)cc1)c1c(C)c(C(=O)N2CC(N3CCN(C(=O)c4nccs4)CC3)C2)nn1-c1ccc(Cl)cc1Cl [Cpd 1010]	–	–	inhibition in vivo at 30 mg/kg (rat; Rattus norvegicus, po, 5 h, read-out: Method 1: peak % reversal): 23.4%
Cc1nc(C(=O)N2CCN(C3CN(C(=O)c4ccc(-c5cccc(C(F)(F)F)c5)cc4)C3)CC2)cs1 [Cpd 1217, 1-[(2-Methyl-1,3-thiazol-4-yl)carbonyl]-4-(1-{[3′-(trifluoromethyl)biphenyl-4-yl]carbonyl}azetidin-3-yl)piperazine]	220 nM	104 nM	–

Further lines, with some results ahead:

IC50 [1]	Kd (mutant MGL)	Compound	other results
< 5 nM	2 nM	O=C(c1ccc(-c2cccc(C(F)(F)F)c2)cc1)N1CC(N2CCN(C(=O)c3ccc(F)s3)CC2)C1 [Cpd 1336, 1-[(5-Fluorothiophen-2-yl)carbonyl]-4-(1-{[3′-(trifluoromethyl)biphenyl-4-yl]carbonyl}azetidin-3-yl)piperazine]	–
49 nM	48 nM	O=C(c1ccccc1)N1CCN(C2CN(C(=O)c3ccc4c(c3)c(F)cn4-c3ccc(F)cc3)C2)CC1 [Cpd 574, 3-Fluoro-1-(4-fluorophenyl)-5-({3-[4-(phenylcarbonyl)piperazin-1-yl]azetidin-1-yl}carbonyl)-1H-indole]	–
< 5 nM	40 nM	O=C(c1ccc2c(ccn2-c2ccc(C(F)(F)F)cc2)c1)N1CCN(C2CN(C(=O)c3cscn3)C2)CC1 [Cpd 1337, 5-({4-[1-(1,3-Thiazol-4-ylcarbonyl)azetidin-3-yl]piperazin-1-yl}carbonyl)-1-[4-(trifluoromethyl)phenyl]-1H-indole]	–
